Experimental data taken from article PMC6514962, “The Impact of O-Glycosylation on Cyanidin Interaction with RBCs and HMEC-1 Cells—Structure–Activity Relationships” (International Journal of Molecular Sciences, 2019).

Tests used:
HMEC-1 cells [1] = assay: AAPH-stimulated intracellular ROS generation, H2DCF-DA assay; assay type: cell-based, human; settings: for inhibitory activity on AAPH-induced intracellular ROS: HMEC-1, throughout the used range of concentrations (50-100 µM); for intracellular ROS level in comparison with control AAPH-oxidized cells: HMEC-1 pretreated 24 h with 50 to 75 µM, then AAPH 24 h
Description: (§1) The impact of investigated compounds on the level of intracellular reactive oxygen species and their ability to inhibit AAPH-stimulated intracellular ROS generation were assessed using a H2DCF-DA probe. Non-fluorescent H2DCF-DA is hydrolyzed intracellularly to form 2′,7′-dichlorodihydrofluorescein, which is oxidized by reactive oxygen species to the fluorescent 2′,7′-dichlorofluorescein. ROS production was estimated in HMEC-1 cells seeded on 96-well plates (5 × 10^3/well) and cultured for 12 to 24 h. After that time, the compounds were added at appropriate concentrations. The incubation was continued for another 24 h and 48 h at 37 °C under 5% CO2. In the case of AAPH-simulated ROS generation, the cells were incubated with extracts for 24 h. After incubation, the AAPH dissolved in culture medium was added to each well at the final concentration of 7.5 mM and incubated for the next 24 h. After that time, the cell monolayers were rinsed with HBSS containing 1% albumin and 5 µM of the fluorescence probe, 2′,7′-dichlorodihydrofluorescein diacetate (H2DCF-DA), was added. Immediately and after 0.5 h, 1 h, and 2 h incubation in the dark in standard conditions, the fluorescence was measured at λex = 485 nm and λem = 538 nm.
(§2) In the next step, DNA content was determined. For this purpose, after measurements, the cells were frozen at −70 °C. Next, the cells were thawed and re-frozen after the addition of […] of distilled water/well. Then, the cells were thawed again. After that, 5 µM of RNase was added to each well and incubated for 30 min in the dark at 37 °C. Next, 50 µL of 2.5 µM propidium iodide was added to the cells and incubated for 5 min in the same conditions. The fluorescence intensity of PI was measured at λex = 355 nm and λem = 620 nm. The rate of ROS generation was calculated according to the formula: (1) Rate of ROS=IFe1/IFe2/IFc1/IFc2⋅100% where IFe1 and IFe2 are fluorescence intensities of H2DCF-DA and PI in compound-modified or compound-modified and AAPH-oxidized cells, and IFc1 and IFc2 are fluorescence intensities of H2DCF-DA and PI in control or AAPH-oxidized control cells.

HMEC-1 cells [2] = assay: viability of HMEC-1 cells, XTT and Hoechst 33342 assays; assay type: cell-based, human; settings: 48 h; for cytotoxicity: HMEC-1, 10-100 µM; for viability of endothelial cells compared with the control: HMEC-1, 100 µM, p < 0.01, both methods
Description: (§3) The effect of compounds on the viability of HMEC-1 cells was assessed by XTT (2,3-bis-(2-methoxy-4-nitro-5-sulfophenyl)-2H-tetrazolium-5-carboxanilide) and Hoechst 33342 assays. Briefly, 5 × 10^3 cells in 100 µL of the appropriate growth medium were plated in 96-well flat bottom clear microplates and cultured for 24 h at 37 °C in a humidified 5% CO2 incubator to ensure their logarithmic growth. […] A corresponding volume of 0.5% ethanol was added to the control wells. In parallel experiments, some of the cells were additionally incubated with doxorubicin in a concentration of 0.5 µM (a cytotoxic compound usually used as an anticancer drug). After incubation, the medium in the wells was aspirated, the cell monolayers were rinsed twice with pre-warmed (37 °C) PBS, and the cells were allowed to grow for an additional 48 h. After incubation, during the XTT assay, medium was removed by aspiration and 50 µL of XTT/PMS solution (10 µL of 10 mM PMS + 4 mL of 4 mg/mL XTT solution) was added to cells. Cells were incubated in the dark for 2 h (37 °C, 5% CO2). After incubation, the absorbance of the samples was read at 450 nm and 690 nm using an Epoch Microplate Spectrophotometer, BioTek Instruments, Inc., Winooski, Vermont, USA. The fraction of surviving treated cells was presented as a percentage of viable control (untreated) cells taken as 100%. In the Hoechst test, after incubation of cells with cyanidin and its glycosides, the medium was removed and the cells were washed twice with HBSS buffer containing 1% bovine serum albumin and frozen at −70 °C. Next, the cells were thawed at room temperature (RT) and re-frozen after the addition of […] of distilled water. After thawing the plates at room temperature, 100 µL of HVAB solution (0.5% Hoechst in TNE solution containing 2 M NaCl, 1 mM EDTA, 10 mM Tris-HCl, pH 7.4) were added to each well. Next, cells were incubated for 15 min in the dark at 37 °C, mixed, and the fluorescence intensity of the probe was measured at 355 and 460 nm for excitation and emission, respectively (Fluoroskan Ascent FL, Thermo Scientific, Waltham, MA, USA). Cell viability was calculated as the ratio of the fluorescence intensity of the Hoechst 33342 probe for compound-modified to -unmodified cells and expressed as a percentage.

erythrocytes (RBCs) [3] = assay: SEM assay of the shapes of erythrocytes; assay type: cell-based, pig; settings: 100 µM, 1 h
Description: The effect of compounds on the shape of erythrocytes was investigated using a scanning electron microscope (SEM). […] Hematocrit concentration of the erythrocytes in the modification solution was 2%, the modification lasting 1 h at 37 °C. After modification, the erythrocytes where fixed for 48 h in a 2.5% solution of glutaraldehyde. After that, the preparations were washed in phosphate buffer for 20 min, and then the material was dehydrated in a rising series of acetone concentrations (30%, 50%, 60%, 70%, 80%, 90%, and 100%). Each sample was washed for 15 min in an appropriate concentration, the material remaining in pure acetone for 30 min. Next, the erythrocytes were dried for 12 h at room temperature. Erythrocytes thus prepared were deposited on object stages and subjected to x-ray microanalysis by means of an x-ray analyzer, Bruker AXS Quantax, collaborating with the ESPRIT ver. 1.8.2. software. Next, the samples were coated with gold using a Scancoat 6 (Edwards, London) sprinkler. The material ultrastructure was analyzed using a scanning microscope (EVO LS15 ZEISS) with an SE1 detector, under high vacuum and accelerating voltage, acceleration voltage (EHT) = 20 kV. Individual forms of erythrocyte cells were ascribed morphological indices according to the Bessis scale, which for stomatocytes assume negative values from −1 to −4, and for echinocytes from 1 to 4.

HMEC-1 cells [4] = assay: intracellular ROS generation in non-oxidized cells, H2DCF-DA assay; assay type: cell-based, human; settings: 50-100 µM
Description: as §1, §2

[5] = test system: human peripheral blood mononuclear cells; parameters: method as in PMID 17360708; settings: cited from earlier work
RAW 264.7 cells = test system: RAW 264.7 cells; parameters: method as in doi:10.1007/s10068-014-0279-x; settings: 100 to 200 µg/mL; cited from earlier work
HL-60 cells = test system: HL-60 cells; parameters: method as in PMID 17360708; settings: by the accumulation of peroxides; cited from earlier work
[6] = viability of HMEC-1 cells, XTT and Hoechst 33342 assays; assay type: cell-based, human; settings: human, HMEC-1 cells, HMEC-1, 100 µM, % of control, read-out: cell viability (XTT and Hoechst assay)
Description: as §3

erythrocytes (RBCs) [7] = assay: protection of erythrocytes against AAPH-induced hemolysis; assay type: cell-based, pig
Description: Upon removal from plasma, the erythrocytes (RBCs) were washed four times in phosphate solution (pH 7.4) and then incubated in the same solution, but containing appropriate amounts of the compounds studied. The modification was conducted at 37 °C for 1 h, each 1 mL sample containing an RBC suspension of 1.2% hematocrit and 1 to 100 µM of compounds, stirred continuously. After the modification, 2 mL of phosphate buffer were added and samples were centrifuged, and the supernatant assayed for hemoglobin content using a spectrophotometer (Specord 40, Analytik Jena) at the 540 nm wavelength. To test the effect of compounds on hemolysis inducted by AAPH, RBCs were pre-incubated with varying concentrations of compounds at 37 °C for 1 h. Hemolysis of RBCs was carried out by mixing 3% suspension of RBCs (unmodified or modified by 2 to 20 µM of the compounds) in phosphate buffer with AAPH solution (final concentration 120 mM). This reaction mixture was incubated for 3 h at 37 °C. After incubation, samples were centrifuged for 15 min (2000× g, RT). The extent of hemolysis was determined spectrophotometrically by measuring the absorbance of the supernatant at 540 nm. Hemoglobin concentration in the supernatant, expressed as a percentage of the hemoglobin concentration in the supernatant of totally hemolyzed cells, was assumed as the measure of the extent of hemolysis.

[8] = test system: MCF-7 breast cancer cells; settings: cited from earlier work
[9] = test system: MCF-7, HuH-7, HepG2, Caco-2, and HUVEC; parameters: method as in doi:10.3136/fstr.17.515; settings: cited from earlier work
renal cell carcinoma = test system: renal cell carcinoma; parameters: method as in PMID 29742507; settings: cited from earlier work

In the case of `OCC1OC(Oc2cc3c(OC4OC(CO)C(O)C(O)C4O)cc(O)cc3[o+]c2-c2ccc(O)c(O)c2)C(O)C(O)C1O` (centres unmarked) [CDG, cyanidin-3-5-O-diglucoside], the “protective effect against AAPH-induced oxidative stress” value (HMEC-1 cells [1]; HMEC-1, 100 µM) is reported as “protective effect”, the “inhibitory activity on AAPH-induced intracellular ROS” value (shortened to “inhibitory activity”) (HMEC-1 cells [1]) is reported as “strong inhibitory action” and the “intracellular ROS level in comparison with control AAPH-oxidized cells” value (HMEC-1 cells [1]) is reported as “significant decrease”. The cytotoxicity (HMEC-1 cells [2]) was “no cytotoxicity”, the “morphological index of induced echinocytes (Bessis scale)” value (“morphological index” for short) (erythrocytes (RBCs) [3]) was “+1” and the “intracellular ROS level compared with control cells” value (HMEC-1 cells [4]; HMEC-1, 24 h) was “significant decrease”. The “intracellular ROS level compared with control cells” value (HMEC-1 cells [4]; HMEC-1, 48 h) was “decreased”.
For `CC1OC(OCC2OC(Oc3cc4c(O)cc(O)cc4[o+]c3-c3ccc(O)c(O)c3)C(O)C(O)C2O)C(O)C(O)C1O` (centres unmarked) [CR, cyanidin-3-O-rutinoside], the toxicity [5] is given as “relatively low toxicity”, the “cell viability compared with control cells” value (RAW 264.7 cells) is given as “significantly decreased” and the “inhibitory activity” value (HMEC-1 cells [1]) is given as “does not cause any inhibitory activity”. The cytotoxicity (HMEC-1 cells [2]) was “no cytotoxicity”, the “morphological index” value (erythrocytes (RBCs) [3]) was “+1” and the apoptosis (HL-60 cells) was “induce apoptosis”. The “intracellular ROS level compared with control cells” value (HMEC-1 cells [4]; HMEC-1, 24 h) was “did not differ” and the “intracellular ROS level compared with control cells” value (HMEC-1 cells [4]; HMEC-1, 48 h) was “no significant difference”.
In the case of `Oc1cc(O)c2cc(OC3OCC(O)C(O)C3O)c(-c3ccc(O)c(O)c3)[o+]c2c1` (centres unmarked) [CA, cyanidin-3-O-arabinoside], the “intracellular ROS level in comparison with control AAPH-oxidized cells” value (HMEC-1 cells [1]) is reported as “significant decrease”, the “viability of endothelial cells compared with the control” value (HMEC-1 cells [2]) is reported as “decreased the viability” and the viability at 48 h, 100 µM [6] is reported as 60 to 85%. The “morphological index” value (erythrocytes (RBCs) [3]) was “+2”, the “intracellular ROS level compared with control cells” value (HMEC-1 cells [4]; HMEC-1, 24 h) was “significant decrease” and the “intracellular ROS level compared with control cells” value (HMEC-1 cells [4]; HMEC-1, 48 h) was “decreased”. For the same compound, the “level of RBCs' protection relative to CR and CDG” value (erythrocytes (RBCs) [7]; compared with CR and CDG) was “better protection”.
With `CC(C)(N=NC(C)(C)C(=N)N)C(=N)N.Cl.Cl` [AAPH, 2,2′-azobis(2-amidinopropane) dihydrochloride, reference compound] the “increase in the ROS level” value (HMEC-1 cells [1]; HMEC-1, 24 h incubation with AAPH (7.5 mM), 37 °C) was “about 60%”.
In the case of `OCC1OC(Oc2cc3c(O)cc(O)cc3[o+]c2-c2ccc(O)c(O)c2)C(O)C(O)C1O` (centres unmarked) [CGA, cyanidin-3-O-galactoside], the “intracellular ROS level compared with control cells” value (HMEC-1 cells [4]; HMEC-1, 48 h) is reported as “decreased”.
For `Oc1cc(O)c2cc(O)c(-c3ccc(O)c(O)c3)[o+]c2c1` [C, Cyanidin], the “cell proliferation and apoptosis” value [8] is given as “inhibition of cell proliferation and increased apoptosis”, the “inhibitory activity” value (HMEC-1 cells [1]) is given as “does not cause any inhibitory activity” and the “viability of endothelial cells compared with the control” value (HMEC-1 cells [2]) is given as “decreased the viability”. For the same compound, the viability at 48 h, 100 µM [6] was 65 to 80%, the “morphological index” value (erythrocytes (RBCs) [3]) was “+4” and the “intracellular ROS levels” value [9] was “decreased”. The “intracellular ROS level compared with control cells” value (HMEC-1 cells [4]; HMEC-1, 24 h) was “significant decrease”, the “intracellular ROS level compared with control cells” value (HMEC-1 cells [4]; HMEC-1, 48 h) was “decreased” and the “percentage of apoptotic cells” value (renal cell carcinoma; 48 h at 0, 25, 50, and 100 μM) was “gradually increased”. For the same compound, the cell cycle arrest (renal cell carcinoma; independently of the concentration) was “induced cell cycle arrest” and the “antioxidant activity compared with CG, CA, and CGA” value (erythrocytes (RBCs) [7]) was “did not observe any significant differences”.
